Data from US12629359B2 (UNIVERSITA' DEGLI STUDI DI BRESCIA, priority 2020, dated 2026).

Test system: SYN120 tg mice
Assay: Immunohistochemistry of nigrostriatal alpha-synuclein deposition and striatal dopaminergic fibers after chronic treatment of SYN120 tg mice
Type: in vivo, mouse
Conditions: daily i.p. 5 mg/kg for 6 weeks
Source text: After the behavioral studies animals were sacrificed by transcardiac perfusion to collect their brains, which were used for immunohistochemical studies aimed at evaluating the efficacy of compound I-threo to reduce pathological alpha-synuclein deposition and neuroprotection in the nigrostriatal system.
First, we quantified aggregated alpha-synuclein pathological deposition by using an antibody specifically recognizing aggregated alpha-synuclein in the subtantia nigra and striatum of mice.
Then alpha-synuclein aggregation was evaluated also by using Thioflavin-S a dye recognizing fibrillary aggregates. […] Please note that dopaminergic neurons or fibers in the images were labelled in light blue.
Finally, we evaluated the neuroprotective effect of the chronic treatment with compound I-threo by quantifying the recovery of striatal dopaminergic fibers in the SYN120 tg mice treated with the compound when compared to the vehicle-treated animals.

SMILES: COC(=O)[C@@H](c1ccc(C)cc1)C1CCCCN1.Cl (stereo partly drawn) [I-threo, threo methyl 2-(piperidin-2-yl)-2-(p-tolyl)acetate hydrochloride]
- Thioflavin-S signal in substantia nigra and striatum: marked reduction of thioflavin-S signal
- aggregated alpha-synuclein in substantia nigra and striatum (vs vehicle): statistically significant reduction of aggregated alpha-synuclein
- striatal TH-positive dopaminergic fibers (vs vehicle): significant recovery of striatal TH-positive dopaminergic fibers
